Assay results from patent publication US10184933B2, “Compositions, systems and methods for gene expression noise drug screening and uses thereof” (priority 2013, dated 2019).
Where a name gives a salt, the structure may show the parent alone.

These compounds were tested on HIV-1 LTR promoter. Settings: not given.
Type: cell-based
With `CC(C)NCC(O)c1ccc(O)c(O)c1.Cl` (racemic) [V86, (±)-Isoproterenol hydrochloride] the “identified as variability enhancer (VE) in noise screen” value (“identified as variability enhancer” for short) was “variability enhancers”. `NNc1nncc2ccccc12` [V17, hydralazine hydrochloride] was tested, and the “identified as variability enhancer” value was “variability enhancers”. `[O-][n+]1ccccc1[S-].[O-][n+]1ccccc1[S-].[Zn+2]` [pyrithione zinc] was tested, and the “identified as variability suppressor (VS) in noise screen” value (shortened to “identified … (VS) in noise screen”) was “variability suppressors”. In the case of `Cc1cc2nc3c(=O)[nH]c(=O)nc-3n(C[C@H](O)[C@H](O)[C@H](O)CO)c2cc1C` [riboflavin], the “identified as variability enhancer” value is reported as “variability enhancers”. For `c1ccc(C2CN3CCSC3=N2)cc1` (stereo not shown) [tetramizole hydrochloride], the “identified as variability enhancer” value was “variability enhancers”. With `Nc1nc2nc[nH]c2c(=S)[nH]1` [thioguanine] the “identified as variability enhancer” value was “variability enhancers”.

Same assay, conditions: Pharmakon 1600 library, 10 uM, 24 hours, FIG. 10
In the case of `C=CCC1(C(C)CCC)C(=O)N=C(S)NC1=O` (stereo not shown) [V8, thiamylal sodium], the “identified as variability enhancer” value is reported as “variability enhancers”. In the case of `COc1ccc2c(c1)c(CC(=O)O)c(C)n2C(=O)c1ccc(Cl)cc1` [V18, Indomethacin], the “identified as variability enhancer” value is reported as “variability enhancers”. In the case of `Cc1cc2nc3c(=O)[nH]c(=O)nc-3n(C[C@H](O)[C@H](O)[C@H](O)COP(=O)([O-])O)c2cc1C.[Na+]` [riboflavin 5-phosphate sodium], the “identified as variability enhancer” value is reported as “variability enhancers”. In the case of `CO[C@H]1/C=C/O[C@@]2(C)Oc3c(C)c(O)c4c(O)c(c5c(nc6cc(C)ccn65)c4c3C2=O)NC(=O)/C(C)=C\C=C\[C@H](C)[C@H](O)[C@@H](C)[C@@H](O)[C@@H](C)[C@H](OC(C)=O)[C@@H]1C` [rifaximin], the “identified as variability enhancer” value is reported as “variability enhancers”. `NCCS(=O)(=O)O` [taurine] was tested, and the “identified as variability enhancer” value was “variability enhancers”. With `C=C(NC(=O)C(=C)NC(=O)c1csc(C2=N[C@@H]3c4csc(n4)[C@H]4NC(=O)c5csc(n5)[C@H]([C@](C)(O)[C@@H](C)O)NC(=O)[C@H]5CSC(=N5)/C(=C/C)NC(=O)[C@H]([C@@H](C)O)NC(=O)c5csc(n5)[C@]3(CC2)NC(=O)[C@H](C)NC(=O)C(=C)NC(=O)[C@H](C)NC(=O)[C@H]([C@@H](C)CC)N[C@@H]2C=Cc3c([C@H](C)O)cc(nc3[C@H]2O)C(=O)O[C@@H]4C)n1)C(N)=O` [thiostrepton] the “identified as variability enhancer” value was “variability enhancers”. In the case of `CN(C)C(=S)SSC(=S)N(C)C` [thiram], the “identified as variability enhancer” value is reported as “variability enhancers”. In the case of `CC[C@]1(O)C[C@H]2CN(CCc3c([nH]c4ccccc34)[C@@](C(=O)OC)(c3cc4c(cc3OC)N(C=O)[C@H]3[C@@](O)(C(=O)OC)[C@H](OC(C)=O)[C@]5(CC)C=CCN6CC[C@]43[C@@H]65)C2)C1` [vincristine sulfate], the “identified as variability enhancer” value is reported as “variability enhancers”. `CCC1=C[C@@H]2CN(C1)Cc1c([nH]c3ccccc13)[C@@](C(=O)OC)(c1cc3c(cc1OC)N(C)[C@H]1[C@@](O)(C(=O)OC)[C@H](OC(C)=O)[C@]4(CC)C=CCN5CC[C@]31[C@@H]54)C2` [vinorelbine] was tested, and the “identified as variability enhancer” value was “variability enhancers”. With `Nc1ccn([C@H]2CC[C@@H](CO)O2)c(=O)n1` [zalcitabine] the “identified as variability enhancer” value was “variability enhancers”. bleomycin [V66] was tested, and the “identified as variability enhancer” value was “variability enhancers”.

Same assay, conditions: Pharmakon 1600 library, 10 uM, 24 hours, FIG. 12
For `COP(=O)(OC)C(O)C(Cl)(Cl)Cl` (stereo not shown) [trichlorfon], the “identified … (VS) in noise screen” value was “variability suppressors”. With arsenic trioxide the “identified … (VS) in noise screen” value was “variability suppressors”. For meclocycline sulfosalicylate, the “identified … (VS) in noise screen” value was “variability suppressors”.

These compounds were tested on latent HIV-1 in JLat 8.6 cells. Settings: not given.
Type: cell-based
`COc1ccc(CCN(C)CCCC(C#N)(c2ccc(OC)c(OC)c2)C(C)C)cc1OC` (racemic) [V24, (±)-Verapamil hydrochloride] was tested, and the “synergy in reactivation of HIV-1 latency” value was “synergized”. With `CC(C)NCC(O)c1ccc(O)c(O)c1.Cl` (racemic) [V86, (±)-Isoproterenol hydrochloride] the “synergy in reactivation of HIV-1 latency” value was “synergized”. `C=CCC1(C(C)CCC)C(=O)N=C(S)NC1=O` (stereo not shown) [V8, thiamylal sodium] was tested, and the “synergy in reactivation of HIV-1 latency” value was “synergized”. In the case of `NNc1nncc2ccccc12` [V17, hydralazine hydrochloride], the “synergy in reactivation of HIV-1 latency” value is reported as “synergized”. For `COc1ccc2c(c1)c(CC(=O)O)c(C)n2C(=O)c1ccc(Cl)cc1` [V18, Indomethacin], the “synergy in reactivation of HIV-1 latency” value was “synergized”.
